Columns and labels:
Type in all cases: cell-based
[1] = target: IKZF1 (Homo sapiens (Human), UniProt Q13422+Q96SW2); assay: Western blot, substrate protein expression in hPBMC: IKZF1; conditions: for substrate protein remaining % IKZF1: hPBMC, compound 500 nM, 24 hours, Western blot; for concentration at which IKZF1 protein was significantly degraded (Western blot, FIG. 1): hPBMCs
Protocol: (§1) The effect of the compounds of the present disclosure on the expression of target proteins in cells was detected using conventional Western blot analysis.
(§2) Human peripheral blood mononuclear cells (hPBMCs) at a density of 1×10^6 cells/mL were thawed according to the PBMC Recovery Protocol (Milecell Biotechnologies Inc, Shanghai). […] After 24 hours of compounds treatment, cells were harvested and lysed in RIPA protein lysate containing phosphatase inhibitors on ice for 30-60 min, followed by centrifugation. The supernatant was aspirated as the extracted total cell protein. The protein concentration of the supernatant was determined using the conventional BCA (Bicinchoninic Acid) assay. The supernatant was then mixed with 4× SDS sample loading buffer, denatured at 95° C. for 5 minutes, and then subjected to SDS-PAGE electrophoresis on a polyacrylamide gel. Proteins were then transferred to a nitrocellulose (NC) membrane, blocked at room temperature for 1-2 h, and processed for antibody incubation and detection according to the manufacturer's instructions (Cell Signaling Technology).
(§3) Half-Maximal Degradation Concentration value (the drug concentration required for degrading proteins by 50%, abbreviated as DC50) reads method: comparing the grayscale values of Western blot bands from drug-treated samples (protein degrader compounds) with those from blank (DMSO-treated) controls, and identifying the drug concentration range at which the grayscale value is half that of the DMSO-treated control bands.
(§4) DC50 values can be calculated using ImageJ software to measure grayscale values of Western blot bands from drug-treated samples. The relationship curve between drug concentration and grayscale values is fitted to estimate the drug concentration corresponding to half the grayscale value.
(§5) Target protein remaining (%) refers to the percentage of target protein remaining in hPBMC cells after treatment with protein degrader compounds.
(§6) Calculation method for protein remaining (%): Use ImageJ software to measure grayscale values of Western blot bands from drug (protein degrader)-treated samples. The grayscale value of drug-treated bands is divided by that of internal control protein bands, and the resulting quotient is normalized to obtain the relative percentage of remaining target protein after protein degrader treatment.
(§7) Target protein degradation rate (%)=100%-target protein remaining (%).

[2] = target: IKZF3 (Homo sapiens (Human), UniProt Q96SW2+Q9UKT9); assay: Western blot, substrate protein expression in hPBMC: IKZF3; conditions: for substrate protein remaining % IKZF3: hPBMC, compound 500 nM, 24 hours, Western blot; for concentration at which IKZF3 protein was significantly degraded (Western blot, FIG. 1): hPBMCs
Chain of IKZF3 (Q9UKT9 whole entry): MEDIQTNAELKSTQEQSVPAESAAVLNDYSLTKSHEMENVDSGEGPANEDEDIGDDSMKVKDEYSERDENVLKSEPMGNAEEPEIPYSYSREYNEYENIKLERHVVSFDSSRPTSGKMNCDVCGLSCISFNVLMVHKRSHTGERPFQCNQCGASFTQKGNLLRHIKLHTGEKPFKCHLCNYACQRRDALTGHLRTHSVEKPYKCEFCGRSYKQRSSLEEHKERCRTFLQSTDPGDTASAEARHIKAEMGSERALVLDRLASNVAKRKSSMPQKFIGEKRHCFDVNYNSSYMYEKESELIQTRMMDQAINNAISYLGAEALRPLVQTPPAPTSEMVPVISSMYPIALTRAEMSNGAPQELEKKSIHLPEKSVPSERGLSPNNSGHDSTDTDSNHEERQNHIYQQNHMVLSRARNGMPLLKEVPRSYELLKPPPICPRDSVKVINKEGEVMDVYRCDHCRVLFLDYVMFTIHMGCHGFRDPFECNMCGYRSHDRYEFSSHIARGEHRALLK
Chain of IKZF3 (Q96SW2 whole entry): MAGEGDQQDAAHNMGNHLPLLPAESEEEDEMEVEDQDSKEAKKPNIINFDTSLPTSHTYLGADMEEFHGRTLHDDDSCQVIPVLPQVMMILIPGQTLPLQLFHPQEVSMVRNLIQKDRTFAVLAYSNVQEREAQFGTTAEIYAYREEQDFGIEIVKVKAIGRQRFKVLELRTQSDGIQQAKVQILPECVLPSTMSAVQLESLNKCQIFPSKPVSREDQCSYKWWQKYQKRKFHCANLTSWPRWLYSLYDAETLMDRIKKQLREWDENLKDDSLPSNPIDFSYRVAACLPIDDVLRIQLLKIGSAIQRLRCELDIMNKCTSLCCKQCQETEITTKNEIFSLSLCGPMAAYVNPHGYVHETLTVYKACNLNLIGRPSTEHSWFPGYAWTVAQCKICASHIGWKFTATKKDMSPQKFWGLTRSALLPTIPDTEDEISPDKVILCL
Chain of IKZF3 (Q16531 whole entry partner): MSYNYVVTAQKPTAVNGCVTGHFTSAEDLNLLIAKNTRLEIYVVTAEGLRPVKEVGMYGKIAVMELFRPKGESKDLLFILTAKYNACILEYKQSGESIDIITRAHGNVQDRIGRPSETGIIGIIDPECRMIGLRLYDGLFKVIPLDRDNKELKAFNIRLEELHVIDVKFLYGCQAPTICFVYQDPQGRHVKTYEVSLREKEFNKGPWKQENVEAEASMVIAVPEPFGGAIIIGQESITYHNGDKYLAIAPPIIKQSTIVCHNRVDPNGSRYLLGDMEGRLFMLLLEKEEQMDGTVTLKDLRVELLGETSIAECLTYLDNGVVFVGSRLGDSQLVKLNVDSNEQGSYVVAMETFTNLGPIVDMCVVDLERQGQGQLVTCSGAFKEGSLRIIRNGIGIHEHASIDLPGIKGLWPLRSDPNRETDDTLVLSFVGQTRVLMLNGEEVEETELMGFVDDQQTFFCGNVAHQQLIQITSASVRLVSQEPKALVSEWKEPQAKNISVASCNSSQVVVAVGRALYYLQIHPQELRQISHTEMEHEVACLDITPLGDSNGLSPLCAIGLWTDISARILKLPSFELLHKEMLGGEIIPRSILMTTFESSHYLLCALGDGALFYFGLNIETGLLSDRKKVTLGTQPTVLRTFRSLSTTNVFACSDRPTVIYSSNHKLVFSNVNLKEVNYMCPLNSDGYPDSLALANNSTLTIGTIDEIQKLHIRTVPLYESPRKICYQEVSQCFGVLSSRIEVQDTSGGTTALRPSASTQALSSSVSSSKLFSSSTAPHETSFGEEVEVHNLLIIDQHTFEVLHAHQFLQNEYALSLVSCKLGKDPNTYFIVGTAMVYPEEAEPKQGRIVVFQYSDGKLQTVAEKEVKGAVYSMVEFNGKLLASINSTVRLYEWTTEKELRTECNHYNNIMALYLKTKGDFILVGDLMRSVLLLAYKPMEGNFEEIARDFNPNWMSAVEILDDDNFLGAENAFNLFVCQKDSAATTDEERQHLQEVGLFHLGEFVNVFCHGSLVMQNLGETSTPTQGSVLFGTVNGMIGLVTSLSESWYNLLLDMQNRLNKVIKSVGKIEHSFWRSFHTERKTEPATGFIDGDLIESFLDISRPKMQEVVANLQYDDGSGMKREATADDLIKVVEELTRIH
Protocol: as §1, §2, §3, §4, §5, §6, §7

[3] = target: GSPT1 (Homo sapiens (Human), UniProt P15170+Q96SW2); assay: Western blot, substrate protein expression in hPBMC: GSPT1; conditions: for substrate protein remaining % GSPT1: hPBMC, compound 500 nM, 24 hours, Western blot
Chain of GSPT1 (P15170 whole entry): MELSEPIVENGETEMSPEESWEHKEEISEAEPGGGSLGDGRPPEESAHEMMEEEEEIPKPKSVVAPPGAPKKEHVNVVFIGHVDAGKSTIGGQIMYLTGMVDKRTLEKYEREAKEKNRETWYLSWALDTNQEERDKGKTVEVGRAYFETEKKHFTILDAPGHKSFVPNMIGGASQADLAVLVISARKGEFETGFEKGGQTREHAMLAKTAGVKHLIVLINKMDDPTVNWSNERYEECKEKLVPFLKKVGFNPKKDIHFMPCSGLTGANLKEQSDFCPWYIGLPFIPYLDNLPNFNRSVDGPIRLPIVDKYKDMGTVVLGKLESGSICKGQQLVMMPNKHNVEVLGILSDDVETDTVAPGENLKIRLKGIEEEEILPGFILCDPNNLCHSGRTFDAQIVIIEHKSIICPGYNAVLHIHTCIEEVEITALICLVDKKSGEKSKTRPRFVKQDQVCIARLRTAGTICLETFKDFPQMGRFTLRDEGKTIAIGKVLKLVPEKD
Chain of GSPT1 (Q96SW2 whole entry): as the sequence (Q96SW2 whole entry) above
Chain of GSPT1 (Q16531 whole entry partner): as the sequence (Q16531 whole entry partner) above
Protocol: as §1, §2, §3, §4, §5, §6, §7

Chain of IKZF1 (Q13422 whole entry): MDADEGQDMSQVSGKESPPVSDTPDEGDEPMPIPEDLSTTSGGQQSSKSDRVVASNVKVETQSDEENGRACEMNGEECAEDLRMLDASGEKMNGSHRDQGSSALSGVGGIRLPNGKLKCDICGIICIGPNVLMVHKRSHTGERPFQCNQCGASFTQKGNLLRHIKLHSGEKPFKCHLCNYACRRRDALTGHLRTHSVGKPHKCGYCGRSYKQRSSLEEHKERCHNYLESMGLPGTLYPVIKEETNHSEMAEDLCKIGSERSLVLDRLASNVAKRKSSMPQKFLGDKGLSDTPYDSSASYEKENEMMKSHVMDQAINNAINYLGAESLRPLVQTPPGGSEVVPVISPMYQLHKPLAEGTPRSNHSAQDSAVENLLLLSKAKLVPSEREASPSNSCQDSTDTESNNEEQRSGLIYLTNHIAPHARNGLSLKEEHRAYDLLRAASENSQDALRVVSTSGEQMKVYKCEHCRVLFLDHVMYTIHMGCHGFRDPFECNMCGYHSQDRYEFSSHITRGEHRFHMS
Chain of IKZF1 (Q96SW2 whole entry): as the sequence (Q96SW2 whole entry) above
Chain of IKZF1 (Q16531 whole entry partner): as the sequence (Q16531 whole entry partner) above

Row | SMILES | substrate protein remaining % IKZF1 [1] | substrate protein remaining % IKZF3 [2] | substrate protein remaining % GSPT1 [3] | concentration at which IKZF1 protein was significantly degraded (Western blot, FIG. 1) [1] | concentration at which IKZF3 protein was significantly degraded (Western blot, FIG. 1) [2] | concentration at which GSPT1 protein was clearly/significantly degraded (Western blot, FIG. 1) ([3]; hPBMCs)
1 | O=C1CCC(N2Cc3ccc(C(=O)N4CCN(C(c5ccccc5)c5ccccc5)CC4)cc3C2=O)C(=O)N1 (centres unmarked) [GT-05851, 3-(6-(4-benzhydrylpiperazine-1-carbonyl)-1-oxoisoindolin-2-yl)piperidine-2,6-dione] | A (A represents 0% ≤ substrate protein remaining % ≤ 50%) | B (B represents substrate protein remaining % > 50%) | A (A represents 0% ≤ substrate protein remaining % ≤ 50%) | – | – | –
2 | O=C1CCC(N2C(=O)c3ccc(C(=O)N4CCN(C(c5ccc(C(F)(F)F)cc5)c5ccc(C(F)(F)F)cc5)CC4)cc3C2=O)C(=O)N1 (centres unmarked) [GT-06217, 5-(4-(bis(4-(trifluoromethyl)phenyl)methyl)piperazine-1-carbonyl)-2-(2,6-dioxopiperidin-3-yl) isoindoline-1,3-dione] | B (B represents substrate protein remaining % > 50%) | B (B represents substrate protein remaining % > 50%) | A (A represents 0% ≤ substrate protein remaining % ≤ 50%) | – | – | –
3 | O=C1CCC(N2C(=O)c3ccc(CN4CCCN(C(c5ccccc5)c5ccccc5)CC4)cc3C2=O)C(=O)N1 (centres unmarked) [GT-05739, 5-((4-benzhydryl-1,4-diazepan-1-yl)methyl)-2-(2,6-dioxopiperidin-3-yl) isoindoline-1,3-dione] | B (B represents substrate protein remaining % > 50%) | B (B represents substrate protein remaining % > 50%) | A (A represents 0% ≤ substrate protein remaining % ≤ 50%) | – | – | –
4 | O=C1CCC(N2Cc3c(ccc(CN4C5CC4CN(C(c4ccccc4)c4ccccc4)C5)c3F)C2=O)C(=O)N1 (centres unmarked) [GT-03572, 3-(5-((3-benzhydryl-3,6-diazabicyclo[3.1.1]heptan-6-yl)methyl)-4-fluoro-1-oxoisoindolin-2-yl)piperidine-2,6-dione] | B (B represents substrate protein remaining % > 50%) | A (A represents 0% ≤ substrate protein remaining % ≤ 50%) | A (A represents 0% ≤ substrate protein remaining % ≤ 50%) | – | – | –
5 | O=C1CCC(N2C(=O)c3ccc(CN4CCN(C5c6ccccc6-c6ccccc65)CC4)cc3C2=O)C(=O)N1 (centres unmarked) [GT-05908, 5-((4-(9H-fluoren-9-yl)piperazin-1-yl)methyl)-2-(2,6-dioxopiperidin-3-yl) isoindoline-1,3-dione] | A (A represents 0% ≤ substrate protein remaining % ≤ 50%) | A (A represents 0% ≤ substrate protein remaining % ≤ 50%) | A (A represents 0% ≤ substrate protein remaining % ≤ 50%) | – | – | –
6 | O=C1CCC(N2C(=O)c3cc(F)c(N4CC5CC(C4)N5C(c4ccccc4)c4ccccc4)cc3C2=O)C(=O)N1 (centres unmarked) [GT-05934, 5-(6-benzhydryl-3,6-diazabicyclo[3.1.1]heptan-3-yl)-2-(2,6-dioxopiperidin-3-yl)-6-fluoroisoindoline-1,3-dione] | B (B represents substrate protein remaining % > 50%) | A (A represents 0% ≤ substrate protein remaining % ≤ 50%) | A (A represents 0% ≤ substrate protein remaining % ≤ 50%) | – | – | –
7 | C[C@@H]1CN(C(c2ccccc2)c2ccccc2)CCN1Cc1ccc2c(c1)C(=O)N(C1CCC(=O)NC1=O)C2=O (stereo partly drawn) [GT-06047, 5-(((R)-4-benzhydryl-2-methylpiperazin-1-yl)methyl)-2-(2,6-dioxopiperidin-3-yl) isoindoline-1,3-dione] | B (B represents substrate protein remaining % > 50%) | B (B represents substrate protein remaining % > 50%) | A (A represents 0% ≤ substrate protein remaining % ≤ 50%) | – | – | –
8 | O=C1CCC(N2C(=O)c3ccc(C(=O)N4CCN(C(c5ccccn5)c5ccccn5)CC4)cc3C2=O)C(=O)N1 (centres unmarked) [GT-05880, 5-(4-(di(pyridin-2-yl)methyl)piperazine-1-carbonyl)-2-(2,6-dioxopiperidin-3-yl) isoindoline-1,3-dione] | B (B represents substrate protein remaining % > 50%) | B (B represents substrate protein remaining % > 50%) | A (A represents 0% ≤ substrate protein remaining % ≤ 50%) | – | – | –
9 | O=C1CCC(N2Cc3c(ccc(CN4CCN(C(c5ccc(C(F)(F)F)cc5)c5ccc(C(F)(F)F)cc5)CC4)c3F)C2=O)C(=O)N1 (centres unmarked) [GT-06200, 3-(5-((4-(bis(4-(trifluoromethyl)phenyl)methyl)piperazin-1-yl)methyl)-4-fluoro-1-oxoisoindolin-2-yl)piperidine-2,6-dione] | B (B represents substrate protein remaining % > 50%) | A (A represents 0% ≤ substrate protein remaining % ≤ 50%) | A (A represents 0% ≤ substrate protein remaining % ≤ 50%) | – | – | –
10 | O=C1CCC(N2C(=O)c3ccc(CN4CCC(N(c5ccccc5)c5ccccn5)CC4)cc3C2=O)C(=O)N1 (centres unmarked) [GT-05742, 2-(2,6-dioxopiperidin-3-yl)-5-((4-(phenyl(pyridin-2-yl)amino)piperidin-1-yl)methyl) isoindoline-1,3-dione] | A (A represents 0% ≤ substrate protein remaining % ≤ 50%) | A (A represents 0% ≤ substrate protein remaining % ≤ 50%) | A (A represents 0% ≤ substrate protein remaining % ≤ 50%) | below 50 nM | below 50 nM | below 50 nM
11 | O=C1CCC(N2C(=O)c3ccc(C(=O)N4CCN(C(c5ccc(OCc6ccccc6)cc5)c5ccc(OCc6ccccc6)cc5)CC4)cc3C2=O)C(=O)N1 (centres unmarked) [GT-06558, 5-(4-(bis(4-(benzyloxy)phenyl)methyl)piperazine-1-carbonyl)-2-(2,6-dioxopiperidin-3-yl) isoindoline-1,3-dione] | A (A represents 0% ≤ substrate protein remaining % ≤ 50%) | B (B represents substrate protein remaining % > 50%) | A (A represents 0% ≤ substrate protein remaining % ≤ 50%) | – | – | –
12 | O=C1CCC(N2C(=O)c3ccc(CN4CCN(C(c5ccccc5)c5ccccc5)CC4)cc3C2=O)C(=O)N1 (centres unmarked) [GT-05690, 5-((4-benzhydrylpiperazin-1-yl)methyl)-2-(2,6-dioxopiperidin-3-yl) isoindoline-1,3-dione] | A (A represents 0% ≤ substrate protein remaining % ≤ 50%) | A (A represents 0% ≤ substrate protein remaining % ≤ 50%) | A (A represents 0% ≤ substrate protein remaining % ≤ 50%) | < 500 nM | < 500 nM | –
13 | O=C1CCC(N2C(=O)c3ccc(CN4CCN(C(c5ccccc5)c5ccncc5)CC4)cc3C2=O)C(=O)N1 (centres unmarked) [GT-06115, 2-(2,6-dioxopiperidin-3-yl)-5-((4-(phenyl(pyridin-4-yl)methyl)piperazin-1-yl)methyl) isoindoline-1,3-dione] | B (B represents substrate protein remaining % > 50%) | B (B represents substrate protein remaining % > 50%) | A (A represents 0% ≤ substrate protein remaining % ≤ 50%) | – | – | –
14 | O=C1CCC(N2C(=O)c3ccc(CN4CCN(C(c5ccccc5F)c5ccccc5F)CC4)cc3C2=O)C(=O)N1 (centres unmarked) [GT-06088, 5-((4-(bis(2-fluorophenyl)methyl)piperazin-1-yl)methyl)-2-(2,6-dioxopiperidin-3-yl) isoindoline-1,3-dione] | B (B represents substrate protein remaining % > 50%) | B (B represents substrate protein remaining % > 50%) | A (A represents 0% ≤ substrate protein remaining % ≤ 50%) | – | – | –
15 | O=C1CCC(N2C(=O)c3cc(F)c(N4C5CCC4CN(C(c4ccccc4)c4ccccc4)C5)cc3C2=O)C(=O)N1 (centres unmarked) [GT-05932, 5-(3-benzhydryl-3,8-diazabicyclo[3.2.1]octan-8-yl)-2-(2,6-dioxopiperidin-3-yl)-6-fluoroisoindoline-1,3-dione] | B (B represents substrate protein remaining % > 50%) | B (B represents substrate protein remaining % > 50%) | A (A represents 0% ≤ substrate protein remaining % ≤ 50%) | – | – | –

Reference: patent US20250320193A1, “OXOISOINDOLINYL SUBSTITUTED PIPERIDINEDIONE DERIVATIVE AND USE THEREOF” (GLUETACS THERAPEUTICS (SHANGHAI) CO., LTD., priority 2022, published 2025)
